Test results: US8680076B2, “Methods of treatment, improvement and prevention using haloaryl substituted aminopurines” (Signal Pharmaceuticals, LLC, priority 2010, dated 2014)
Entries after “also recorded” stand apart in the source; their conditions may differ.

What was measured:
Tsk-1 mice = experiment: Tight skin-1 (Tsk-1) mouse model of systemic sclerosis; assay type: in vivo; details: for decrease of number of myofibroblasts / reduction of hypodermal thickening: 6 weeks; for reduction of hypodermal thickening: compared to untreated mice
Procedure: The antifibrotic effects of the JNK inhibitor Compound JNKi-1 were tested in a murine tight skin-1 (Tsk-1) model of systemic sclerosis. In this model, a dominant mutation in the fibrillin 1 gene (Fbn1^Tsk+/−) leads to a systemic sclerosis-like disease with inflammatory infiltrates and massive fibrosis of the skin (Akhmetshina A, Venalis P, Dees C, Busch N, Zwerina J, Schett G, et al., Treatment with imatinib prevents fibrosis in different preclinical models of systemic sclerosis and induces regression of established fibrosis, Arthritis Rheum. 2009; 60(1):219-24).
Male and female TSK-1 mice were used. Mice were fed a standard diet with water ad libitum. The room temperature was kept constant at 22° C. with a humidity of 60%.
Compound JNKi-1 was dissolved in 0.5% carboxymethylcellulose (CMC)/0.25% Tween 80 in water. As vehicle control a solution of 0.5% CMC/0.25% Tween 80 in water was used. Imatinib mesylate was dissolved in 0.9% NaCl at a concentration of 50 mg/kg/day in a total volume of 100 μL.
Groups of Tsk-1 mice (n=4/sex/group) were assigned to one of five treatment groups: • Untreated wildtype (Fbn1^Tsk−/−) group received 0.5% CMC/0.25% Tween 80 in water orally (PO) twice daily (BID). • Untreated Fbn1Tsk+/− mice received 0.5% CMC/0.25% Tween 80 in water orally BID. • Compound JNKi-1-treated Fbn1^Tsk+/− received 50 mg/kg orally BID. • Compound JNKi-1-treated Fbn1^Tsk+/− received 150 mg/kg orally BID. • Imatinib mesylate-treated Fbn1^Tsk+/− group received 50 mg/kg/day administered intraperitoneally (IP).
Treatments with Compound JNKi-1 and control compound were started at Week 4. After 6 weeks of treatment, mice were sacrificed, and the antifibrotic effects from each treatment were analyzed.
Antifibrotic effects were determined by measuring the dermal thickness and quantifying the numbers of myofibroblasts in the lesional skin. Dermal thickness was determined by measuring the distance from the epidermal/dermal border to the dermal/subdermal border in H & E-stained sections at four different sites. The number of myofibroblasts was quantified by staining for alpha smooth muscle actin (α-SMA) in paraffin-embedded sections. Data are expressed as mean±standard error of the mean (SEM). SPSS17.0 software and the Mann-Whitney-U-test were used for statistical analyses. A p-value of less than 0.05 was considered statistically significant.

SKH-1 mice epidermis = experiment: UVB-induced apoptosis (TUNEL) in skin of SKH-1 mice; assay type: in vivo, mouse; details: 75 mg/kg PO BID for 5 days before UVB 0.5 J/cm^2, vs vehicle
Source text: Ultraviolet B (UVB) light is known to induce breaks in DNA (nicks) that can trigger the process of apoptosis, and these nicks can be labeled and visualized with terminal deoxynucleotidyl transferase dUTP nick end labeling (TUNEL). TUNEL technology identifies DNA breaks by labeling free 3′-OH terminals with modified (fluorescing) nucleotides in an enzymatic reaction that makes the damaged apoptotic cells fluoresce. This study was one of a series of pharmacology studies designed to determine the effects of the JNK inhibitor, Compound JNKi-1, on UVB-induced apoptosis in the skin of mice.
Female SKH-1 mice (Charles River, n=17 total) were obtained at a body weight of 15 g to 20 g. Mice were housed in regular shoebox cages and allowed to become acclimated for a minimum of 1 week. Mice were fed Harlan Teklad (No. 7001) 4% mouse/rat diet and water ad libitum and were maintained on a 12-hour light/dark cycle. […]
A Leica microscope with a CoolSNAP digital camera was used to obtain 5 random 20× magnification fluorescent images from five sections of skin epidermis and the number of TUNEL-positive green cells was counted to determine the average number of cells per animal and group (n=5).
Statistical one-way analysis of variance (ANOVA) was performed followed by Bonferroni's multiple comparison test (Graph Pad Prism). The data were expressed as mean±standard error of the mean (SEM).

Structure (SMILES): O[C@H]1CC[C@H](Nc2ncc3nc(Nc4c(F)cc(F)cc4F)n([C@H]4CCOC4)c3n2)CC1 [JNKi-1, 4-((9-((3S)-tetrahydro-3-furanyl)-8-((2,4,6-trifluorophenyl)amino)-9H-purin-2-yl)amino)-trans-cyclohexanol]
- decrease of number of myofibroblasts (Tsk-1 mice; 50 mg/kg orally BID): 68%±28%
- reduction of hypodermal thickening (Tsk-1 mice; 50 mg/kg orally BID): 67%±5%
- decrease of number of myofibroblasts (Tsk-1 mice; 150 mg/kg orally BID): 99%±9%
- reduction of hypodermal thickening (Tsk-1 mice; 150 mg/kg orally BID): 85%±7%
- hypodermal thickening / myofibroblast counts (in words) (Tsk-1 mice; 50 and 150 mg/kg orally BID): dose dependently reduced; also recorded: more pronounced; also recorded: dose-dependently reduce
- number of TUNEL-positive cells in epidermis 24 hr post UV exposure (SKH-1 mice epidermis): can inhibit apoptotic cell death; also recorded: significantly (p<0.01) decreased
